Experimental data reported in patent US7319094B2, “Increased and sustained in vivo gene expression using a nucleic acid, histone and amphipathic compound composition” (Rhode Island Hospital, priority 2001, dated 2008).
Entries after “also recorded” stand apart in the source; their conditions may differ.

What was measured:
Format in all cases: cell-based, human
[1] = test system: PNET2 cells induced to express AD7c-NTP; assay: Cell morphology by phase contrast microscopy; settings: IPTG-induced AD7c-NTP; insulin 50 nM, IGF-1 5 ng/ml, NGF 2.5 ng/ml, PDGF 5 ng/ml; 24-48 hours
Protocol: (§1) To examine the effects of different growth factors on AD7c-NTP expression (and over-expression), the cells were serum-starved for 16 hours, after which IPTG (1-5 mM) was added to the medium. Four hours later, the cells were stimulated with insulin (50 nM), IGF-1 (5 ng/ml), NGF ([…]), or platelet-derived growth factor (PDGF; 5 ng/ml) for 24-72 hours. The cells were analyzed for morphological changes, viability, AD7c-NTP immunoreactivity, and expression of pro-apoptosis genes, survival genes, and phospho-tau.
Cells were serum-starved for 24 hours. However, since several hours of IPTG stimulation were required to induce AD7c-NTP gene expression or CAT activity, IPTG (3 mM) was added to the cultures after 16 hours of serum-starvation, i.e. 8 hours prior to growth factor stimulation. The cells were stimulated with insulin (50 nM), IGF-1 (5 ng/ml), NGF (2.5 ng/ml), or PDGF (5 ng/ml) and examined by phase contrast microscopy 24-48 hours later. PNET2 cells could be maintained in serum-free medium for 5 to 7 days with insulin, IGF-1, NGF, or PDGF as the only growth stimulus. In addition, each of these growth factors supports DNA synthesis and promotes modest outgrowth of multipolar neurites in PNET2 cells.

[2] = test system: IRS-1-associated PI3 kinase; assay: IRS-1-associated PI3 kinase activity; settings: 3 mM IPTG-induced cultures, 30 minutes of stimulation
Protocol: The cells were harvested in Triton lysis buffer supplemented with protease and phosphatase inhibitors. Total PI3K was immunoprecipitated from 500 μg protein in cell lysates using rabbit polyclonal antibodies to the p85 subunit of PI3K and Protein A sepharose. The immunoprecipitants were incubated for 5 minutes at room temperature with 10 μg of sonicated phosphatidylinositol in HEPES buffer (200 mM HEPES, 4 mM EGTA, 4 mM sodium phosphate, pH 7.0). Reactions were initiated by the addition of 5 μCi [α^32p] ATP, 15 mM MgCl2, 150 mM ATP, 1.5 mM Tris-HCl, pH 7.4, and 15 mM NaCl. […] Phosphorylated lipids were analyzed by thin layer chromatography using gel plates pre-coated with 1% oxalate (Merck, White House Station, N.J.). PI3K activity was measured with a phosphorimager.
PI3 kinase is an important mediator of neuronal survival. […] Since insulin and IGF-1 can activate PI3 kinase through the insulin-receptor substrate-1 (IRS-1) or through IRS-1-independent pathways, both IRS1-associated PI3 kinase and total PI3 kinase activities were measured. […] Levels of PI3 kinase activity were measured in anti-phospho-tyrosine (PY) immunoprecipitates. […] Similarly, PI3 kinase activity was readily detected in the PY immunoprecipitates prepared with cells stimulated with insulin or PDGF.

[3] = test system: phospho-Erk MAPK; assay: Growth factor stimulated phospho-Erk MAPK, Western blot; settings: for phospho-Erk MAPK level, short-term stimulation: 0-30 minutes stimulation; for phospho-Erk MAPK level, 24 hours: 24 hours of AD7c-NTP induction and growth factor stimulation
Excerpt: (§2) Standard Western blot assays wew used to measure cellular levels of p53, Bcl-2, p21/Waf1, phospho-tau, tau, c-fos, NTP, and activated (phosphorylated) forms of Erk mitogen activated protein (MAP) kinase, amino-terminal c-jun-activated kinase (pJNK), and p38/HOG1. Immunoprecipitation followed by Western blot analysis was used to measure p85 subunit associated with IRS1. For Western blot analysis of p53 Bcl-2, phospho-tau, tau, c-fos, and NTP, the cells were lysed in ice cold radioimmunoprecipitation assay (RIPA) buffer supplemented with protease and phosphatase inhibitors. For the immunoprecipitation studies, Western blot analysis of phospho-Erk, pJNK, and p38, and the PI3 kinase assays, the cells were harvested in Triton lysis buffer supplemented with protease and phosphatase inhibitors. Protein concentrations were measured using the BCA assay (Pierce, Rockford, Ill.). Samples containing 60 μg of protein were fractionated by sodium dodecyl sulfate polyacrylamide gel electrophoresis (SDS-PAGE), then transferred to PVDF membranes, and analyzed by Western immunoblotting. Immunoreactivity was detected with horseradish peroxidase conjugated secondary IgG and PicoWest enhanced chemiluminescence reagents (Pierce Chemical Company, Rockford, Ill.). CAT activity was measured using known methods.
(§3) The potential mechanisms by which the differential effects of insulin, IGF1 and PDGF might occur were explored by examining pathways, which mediate PNET2 neuronal apoptosis and neuritic sprouting. […] Western blot analysis was performed with cell lysates obtained from cultures stimulated with insulin, IGF1, or PDGF for 0-30 minutes or 24 hours with equivalent protein loading (60 μg/sample). The membranes were probed using antibodies to Erk, phospho-Erk, Jun, and phospho-JNK. […] In contrast, after 24 hours of AD7c-NTP gene induction and growth factor stimulation, high levels of phospho-Erk MAPK were detected in the IGF-1 and PDGF-stimulated cultures, but not in the serum-starved or insulin-stimulated cultures. […] In contrast, the levels of c-fos transcription factor were equally expressed after 24 hours IPTG induction of AD7c-NTP expression and either serum starvation or stimulation with insulin, IGF1 or PDGF.

[4] = test system: phospho-JNK; assay: Growth factor stimulated phospho-JNK, Western blot; settings: for phospho-JNK level, short-term stimulation: 5-30 min stimulation
Excerpt: as §2, §3

[5] = test system: PY-PI3 kinase (total PI3 kinase); assay: PI3 kinase activity in anti-phospho-tyrosine (PY) immunoprecipitates
Protocol: The cells were harvested in Triton lysis buffer supplemented with protease and phosphatase inhibitors. Total PI3K was immunoprecipitated from 500 μg protein in cell lysates using rabbit polyclonal antibodies to the p85 subunit of PI3K and Protein A sepharose. The immunoprecipitants were incubated for 5 minutes at room temperature with 10 μg of sonicated phosphatidylinositol in HEPES buffer (200 mM HEPES, 4 mM EGTA, 4 mM sodium phosphate, pH 7.0). Reactions were initiated by the addition of 5 μCi [α^32p] ATP, 15 mM MgCl2, 150 mM ATP, 1.5 mM Tris-HCl, pH 7.4, and 15 mM NaCl. After 10 minutes incubation at 30° C., the reactions were stopped by the addition of HCl to a final concentration of 1.2 N, followed by chloroform/methanol extraction. Phosphorylated lipids were analyzed by thin layer chromatography using gel plates pre-coated with 1% oxalate (Merck, White House Station, N.J.). PI3K activity was measured with a phosphorimager.
PI3 kinase is an important mediator of neuronal survival. The pro-survival effects of PI3K are mediated through activation of Akt (protein kinase B) and phosphorylation of Bad to render it inactivated. Inhibition of PI3 kinase activity is associated with PNET2 cell apoptosis. Therefore, experiments were carried out to determine if growth factor stimulated PI3 kinase activity was inhibited in insulin or IGF-1-stimulated cultures. Such inhibition has been observed following chronic ethanol exposure. Since insulin and IGF-1 can activate PI3 kinase through the insulin-receptor substrate-1 (IRS-1) or through IRS-1-independent pathways, both IRS1-associated PI3 kinase and total PI3 kinase activities were measured. These studies were conducted using insulin or PDGF stimulated cultures in which AD7c-NTP gene expression was induced by 3 mM IPTG stimulation. […] Levels of PI3 kinase activity were measured in anti-phospho-tyrosine (PY) immunoprecipitates. […] Similarly, PI3 kinase activity was readily detected in the PY immunoprecipitates prepared with cells stimulated with insulin or PDGF.

[6] = test system: p53; assay: p53 expression, Western blot / MICE assay; settings: PNET2 cells induced to express AD7c-NTP, growth factor stimulated
Excerpt: as §2
(§4) The MICE assay is known in the art (e.g., as described by de la Monte et al., 1999, Biotechniques 26:107301076). The assay is a rapid and sensitive method for quantifying immunoreactivity in 96-well micro-cultures and combines the advantages of the enzyme-linked immunosorbant assay with immunocytochemical staining to permit sensitive in situ quantification of protein expression with values normalized to cell density. […] Immunoreactivity was detected using horseradish peroxidase conjugated secondary antibody (Pierce, Rockford, Ill.) and the TMB soluble peroxidase substrate (Pierce, Rockford, Ill.). Absorbances were measured at 450 nm using a Spectracount plate reader. […]

[7] = test system: Bcl-2; assay: Bcl-2 expression, Western blot / MICE assay; settings: PNET2 cells induced to express AD7c-NTP, growth factor stimulated
Excerpt: as §2, §4

[8] = test system: nitric oxide synthase-3 (NOS-3); assay: NOS-3 expression, Western blot; settings: PNET2 cells induced to express AD7c-NTP; relative to PDGF-stimulated cultures
Excerpt: as §2, with “methods. […]” for “methods.”

[9] = test system: PNET2 cells induced to express AD7c-NTP; assay: Crystal violet viability assay; settings: 3 mM IPTG-induced AD7c-NTP; relative to un-induced FCS-stimulated and IPTG-induced NGF or PDGF stimulated cultures
Protocol: as §1
Viability was measured by a standard crystal violet assay. Crystal violet dye labels only viable cells. The assays were performed with cells seeded into 96-well plates at a density of 2×10^4 cells/well. The absorbances were measured using a Spectracount plate reader (Packard, Meriden, Conn.). The crystal violet absorbances increased linearly with cell density between 10^4 and 5×10^5 cells/well.
Cells were serum-starved for 24 hours. However, since several hours of IPTG stimulation were required to induce AD7c-NTP gene expression or CAT activity, IPTG (3 mM) was added to the cultures after 16 hours of serum-starvation, i.e. 8 hours prior to growth factor stimulation. […]
Increased cell loss associated with insulin-stimulation and AD7c-NTP over-expression Cell viability was quantified using the microculture Crystal violet assay with cells seeded into 96-well plates. […]

[10] = test system: p21/Waf1; assay: p21/Waf1 expression, Western blot / MICE assay; settings: PNET2 cells induced to express AD7c-NTP, growth factor stimulated
Excerpt: as §2, with “For the immunoprecipitation studies, Western blot analysis of phospho-Erk, pJNK, and p38, and the PI3 kinase assays, the cells were harvested in Triton lysis buffer supplemented with protease and phosphatase inhibitors.” left out
(§5) The MICE assay is known in the art (e.g., as described by de la Monte et al., 1999, Biotechniques 26:107301076). […] Immunoreactivity was detected using horseradish peroxidase conjugated secondary antibody (Pierce, Rockford, Ill.) and the TMB soluble peroxidase substrate (Pierce, Rockford, Ill.). […]

[11] = test system: phospho-tau; assay: phospho-tau expression, Western blot / MICE assay; settings: PNET2 cells induced to express AD7c-NTP; relative to PDGF-stimulated cultures
Excerpt: as §2, with “For the immunoprecipitation studies, Western blot analysis of phospho-Erk, pJNK, and p38, and the PI3 kinase assays, the cells were harvested in Triton lysis buffer supplemented with protease and phosphatase inhibitors.” left out
as §5

[12] = test system: p25; assay: p25 expression, Western blot / MICE assay; settings: PNET2 cells induced to express AD7c-NTP
Excerpt: as §2, with “For the immunoprecipitation studies, Western blot analysis of phospho-Erk, pJNK, and p38, and the PI3 kinase assays, the cells were harvested in Triton lysis buffer supplemented with protease and phosphatase inhibitors.” left out
as §5

| Substance | cell morphology [1] | IRS-1-associated PI3 kinase activity [2] | phospho-Erk MAPK level, short-term stimulation [3] | phospho-Erk MAPK level, 24 hours [3] | phospho-JNK level, short-term stimulation [4] | phospho-JNK level, 24 hour time point [4] | PY-PI3 kinase activity, short-term ([5]; 5-30 minutes, PDGF versus insulin-stimulated cultures) | PY-PI3 kinase activity, 24 or 48 hours ([5]; 24 or 48 hours of stimulation) | p53 level [6] | Bcl-2 level [7] | NOS-3 level [8] | cell density (crystal violet) [9] | p21/Waf1 level [10] | phospho-tau level [11] | p25 level [12] |
| --- | --- | --- | --- | --- | --- | --- | --- | --- | --- | --- | --- | --- | --- | --- | --- |
| NGF: Recombinant human NGF purchased from Sigma | extensive neuritic growth with multipolar fine interconnecting processes and minimal evidence of on-going cell death | – | – | – | – | – | – | – | – | – | – | – | – | – | – |
| PDGF | extensive neuritic growth with multipolar fine interconnecting processes and minimal evidence of on-going cell death | virtually undetectable | minimal effect | high levels | much lower levels | no detectable phospho-JNK expression | consistently lower | similar | no detectable p53 | high levels of Bcl-2 | – | – | – | – | – |
| IGF-1: Recombinant human IGF1 purchased from Sigma | two populations of cells | – | increased levels | high levels | much lower levels | no detectable phospho-JNK expression | – | – | intermediate levels; also recorded: significantly increased levels | intermediate levels; also recorded: reduced levels | increased levels | significantly reduced cell densities | significantly increased levels | increased levels | significantly increased levels |
